Data reported in patent publication US10329309B2, “3-(3H-imidazo[4,5-B]pyridin-2-yl)-1H-pyrazolo[4,3-B]pyridines and therapeutic uses thereof” (Samumed, LLC, priority 2015, dated 2019).

Experiments:
Format in all cases: cell-based
[1] = tested on: IL-6 (THP-1 cells); assay: Inhibition of IL-6 in LPS-stimulated THP-1 monocytes (HTRF); conditions: Homo sapiens, LPS 500 ng/mL, IL-6 by HTRF
Description: Human monocyte cell line (THP-1 cells; Catalog # TIB-202, ATCC, Manassas, Va.) were cultured in Roswell Park Memorial Institute (RPMI) 1640 Medium (Catalog #21870-100, Buffalo, N.Y.) with 1% L-glutamine, 1% HEPES, 1% Sodium Pyruvate, 2% Sodium Bicarbonate supplemented with 100 units/mL penicillin, 50 μg/mL streptomycin, 2-mercaptoethanol (0.05 mM) [basal medium] and 10% fetal bovine serum (Catalog #16140089, Life Technologies, Carlsbad, Calif.) at 37° C. and 5% CO2.
THP-1 cells were cultured in basal media with 1% FBS for 24 hours before the start of the assay. Each compound was dissolved in DMSO as a 10 mM stock and used to prepare compound source plates. Serial dilution (1:3, 10-point dose-response curves starting from 10 μM) and compound transfer was performed using the ECHO 550 (Labcyte, Sunnyvale, Calif.) into 384-well white low volume assay plates (Greiner Bio-One) with appropriate DMSO backfill for a final DMSO concentration of 0.1%. THP-1 cells were plated at 5000 cells/well in the 384-well plates and incubated at 37° C. for 2 h. 500 ng/mL of LPS was added after 2 hours and cells were incubated for another 22 hours at 37° C. Plates were spun in a centrifuge for 1 minute at […] and a mixture of anti-IL6 XL665, and anti-IL6 Cryptate diluted in reconstitution buffer (Cisbio Inc.) was added to each well. Following incubation for 3 hrs at room temperature, Homogeneous Time-Resolved Fluorescence (HTRF) was measured using the Envision (Perkin Elmer) at 665 nm and […]. The ratio of fluorescence at 665 nm to 620 nm was used as a readout for IL6 quantification. All samples were processed in duplicate. Readings were normalized to DMSO treated cells and normalized activities were utilized for EC50 calculations using the dose-response log (inhibitor) vs. response -variable slope (four parameters) nonlinear regression feature available in GraphPad Prism 5.0 (or Dotmatics). For EC50 of >10 μM, the percent inhibition at 10 μM is provided.

[2] = tested on: SW480 colon cancer cells; assay: Cell viability assay (CellTiter-Blue), four days; conditions: Homo sapiens, 96 h, CellTiter-Blue cell viability
Description: Representative compounds were screened using the following assay procedure to assess the effect on cell viability as described below.
Each compound was dissolved in DMSO as a 10 mM stock and used to prepare compound source plates. Serial dilution (1:3, 8-point dose-response curves from 10 μM to 0.0045 μM) and compound transfer was performed using the ECHO 550 (Labcyte, Sunnyvale, Calif.) into 96-well clear bottom, black-walled plates (Corning-Costar).
Approximately 2×10^3 SW480 colon cancer cells were seeded into each well and allowed to incubate in the presence or absence of compound for four days at 37° C./5% CO2. Eight replicates of DMSO-treated cells served as controls and cells treated with compound were performed in duplicate.
After incubation, 20 μL of CellTiter-Blue (Promega) was added to each well allowed to incubate for approximately 3 hours. This reagent was a buffered solution which contains resazurin, metabolically active cells were able to reduce rezarurin (blue) into resorufin (pink) which was highly fluorescent. This measured fluorescence was used as a readout for cell viability.
After incubation, the plates were read at Ex 560 nm Em 590 nm (Cytation 3, BioTek). Dose-response curves were generated and EC50 concentration values were calculated using non-linear regression curve fit in the GraphPad Prism (San Diego, Calif.) or Dotmatics' Studies Software (Bishops Stortford, UK). For EC50 of >10 μM, the percent inhibition at 10 μM is provided.

[3] = tested on: primary human fibroblasts derived from IPF patients (LL29 cells), α-smooth muscle actin (αSMA); assay: Inhibition of the fibrotic process: TGF-β1-treated primary human fibroblasts from IPF patients, αSMA staining; conditions: Fibroblast, 96 h, LL29 fibroblasts from IPF patients, TGF-β1 20 ng/mL, 4 days, inhibition of fibrotic process
Excerpt: Representative compounds were screened using primary human fibroblasts (derived from IPF patients) treated with TGF-β1 to determine their ability to inhibit the fibrotic process.
Primary human fibroblasts derived from IPF patients (LL29 cells) [^1Xiaoqiu Liu, et. al., “Fibrotic Lung Fibroblasts Show Blunted Inhibition by cAMP Due to Deficient cAMP Response Element-Binding Protein Phosphorylation”, Journal of Pharmacology and Experimental Therapeutics (2005), 315(2), 678-687; ^2Watts, K. L., et. al., “RhoA signaling modulates cyclin D1 expression in human lung fibroblasts; implications for idiopathic pulmonary fibrosis”, Respiratory Research (2006), 7(1), 88] were obtained from American Type Culture Collection (ATCC) and expanded in F12 medium supplemented with 15% Fetal Bovine Serum and Penicillin/Streptomycin.
Each compound was dissolved in DMSO as a 10 mM stock and used to prepare compound source plates. Serial dilution (1:2, 11-point dose-response curves from 10 μM to 1.87 nM) and compound transfer was performed using the ECHO 550 (Labcyte, Sunnyvale, Calif.) into 384-well clear bottom assay plates (Greiner Bio-One) with appropriate DMSO backfill for a final DMSO concentration of 0.1%. LL29 cells are plated at 1,500 cells/well in 80 μL/well F12 medium supplemented with 1% Fetal Bovine Serum. One hour after addition of the cells, TGF-β1 (Peprotech; 20 ng/mL) was added to the plates to induce fibrosis (ref. 1 and 2 above). Wells treated with TGF-β1 and containing DMSO were used as controls. Cells were incubated at 37° C. and 5% CO2 for 4 days. Following incubation for 4 days, SYTOX green nucleic acid stain (Life Technologies [Thermo Fisher Scientific]) was added to the wells at a final concentration of 1 μM and incubated at room temperature for 30 min. Cells were then fixed using 4% formaldehyde (Electron Microscopy Sciences), washed 3 times with PBS followed by blocking and permeabilization using 3% Bovine Serum Albumin (BSA; Sigma) and 0.3% Triton X-100 (Sigma) in PBS. Cells were then stained with antibody specific to α-smooth muscle actin (αSMA; Abcam) (ref. 1 and 2 above) in 3% Bovine Serum Albumin (BSA; Sigma) and 0.3% Triton X-100 (Sigma) in PBS, and incubated overnight at 4° C. Cells were then washed 3 times with PBS, followed by incubation with Alexa Flor-647 conjugated secondary antibody (Life Technologies [Thermo Fisher Scientific]) and DAPI at room temperature for 1 hour. Cells were then washed 3 times with PBS and plates were sealed for imaging. αSMA staining was imaged by excitation at 630 nm and emission at 665 nm and quantified using the Compartmental Analysis program on the CellInsight CX5 (Thermo Scientific). Dead or apoptotic cells were excluded from analysis based on positive SYTOX green staining. % of total cells positive for αSMA were counted in each well and normalized to the average of 11 wells treated with TGF-β1 on the same plate using Dotmatics' Studies Software. The normalized averages (fold change over untreated) of 3 replicate wells for each compound concentration were used to create dose-responses curves and EC50 values were calculated using non-linear regression curve fit in the Dotmatics' Studies Software. For EC50 of >10 μM, the percent inhibition at 10 μM is provided.

[4] = tested on: Wnt activity (Sp5-Luc reporter, SW480 colon carcinoma cells); assay: Screening assay for Wnt activity: Sp5-Luc reporter gene assay in SW480 cells; conditions: Homo sapiens, overnight incubation, 10-point dose-response from 10 μM
Excerpt: The screening assay for Wnt activity is described as follows. Reporter cell lines can be generated by stably transducing cancer cell lines (e.g., colon cancer) or primary cells (e.g., IEC-6 intestinal cells) with a lentiviral construct that includes a Wnt-responsive promoter driving expression of the firefly luciferase gene.
SW480 colon carcinoma cells were transduced with a lentiviral vector expressing luciferase with a human Sp5 promoter consisting of a sequence of eight TCF/LEF binding sites. SW480 cells stably expressing the Sp5-Luc reporter gene and a hygromycin resistance gene were selected by treatment with 150 μg/mL of hygromycin for 7 days. These stably transduced SW480 cells were expanded in cell culture and used for all further screening activities. Each compound was dissolved in DMSO as a 10 mM stock and used to prepare compound source plates. Serial dilution (1:3, 10-point dose-response curves starting from 10 μM) and compound transfer was performed using the ECHO 550 (Labcyte, Sunnyvale, Calif.) into 384-well white solid bottom assay plates (Greiner Bio-One) with appropriate DMSO backfill for a final DMSO concentration of 0.1%. For Sp5-Luc reporter gene assays, the cells were plated at 4,000 cells/well in 384-well plates with medium containing 1% fetal bovine serum and incubated overnight at 37° C. and 5% CO2. Following incubation, 20 μl of BrightGlo luminescence reagent (Promega) was added to each well of the 384-well assay plates. The plates were placed on an orbital shaker for 2 min and then luminescence was quantified using the Envision (Perkin Elmer) plate reader. Readings were normalized to DMSO only treated cells, and normalized activities were utilized for EC50 calculations using the dose-response log (inhibitor) vs. response -variable slope (four parameters) nonlinear regression feature available in GraphPad Prism 5.0 (or Dotmatics). For EC50 of >10 μM, the percent inhibition at 10 μM is provided.

| EC50 [1] | EC50 [2] | EC50 [4] | Compound | EC50 [3] |
| --- | --- | --- | --- | --- |
| 2620 nM | 2590 nM | 2720 nM | c1cc(-c2ccoc2)c2nc(-c3n[nH]c4ccc(-c5cncc(CNCC6CCCC6)c5)nc34)[nH]c2n1 [Compound 333, 1-Cyclopentyl-N-((5-(3-(7-(furan-3-yl)-3H-imidazo[4,5-b]pyridin-2-yl)-1H-pyrazolo[4,3-b]pyridin-5-yl)pyridin-3-yl)methyl)methanamine] | 1420 nM |
| 131 nM | 3320 nM | 4860 nM | c1ccc(CNCc2cncc(-c3ccc4[nH]nc(-c5nc6c(-c7cccnc7)ccnc6[nH]5)c4n3)c2)cc1 [Compound 108, N-Benzyl-1-(5-(3-(7-(pyridin-3-yl)-3H-imidazo[4,5-b]pyridin-2-yl)-1H-pyrazolo[4,3-b]pyridin-5-yl)pyridin-3-yl)methanamine] | 8890 nM |

| Compound | EC50 [1] | EC50 [2] | EC50 [4] | EC50 [3] |
| --- | --- | --- | --- | --- |
| Cc1ccc(-c2ccnc3[nH]c(-c4n[nH]c5ccc(C6=CCNCC6)nc45)nc23)s1 [Compound 730, 3-(7-(5-Methylthiophen-2-yl)-3H-imidazo[4,5-b]pyridin-2-yl)-5-(1,2,3,6-tetrahydropyridin-4-yl)-1H-pyrazolo[4,3-b]pyridine] | 558 nM | 3480 nM | 3160 nM | 489 nM |
